The source made the active and inactive calls. No cut-off for these calls is given here.
Legend:
Escherichia coli [1] = experiment: Reversible inhibition of Escherichia coli rhomboid GlpG assessed as residual activity preincubated for 30 mins followed by excess drug removal for 240 mins before FP-Rh addition measured after 1 hr by ABPP method
[2] = Competitive inhibition of Escherichia coli rhomboid GlpG preincubated for 30 mins followed by FP-Rh addition measured after 1 hr by gel-based ABPP method
[3] = Inhibition of bovine trypsin using Z-GGR-AMC as substrate preincubated for 30 mins followed by substrate addition measured for 20 mins by fluorescence assay; design: species or system Bos taurus
Escherichia coli [4] = experiment: Competitive inhibition of Escherichia coli rhomboid GlpG assessed as residual enzyme activity at 100 uM preincubated for 30 mins followed by FP-Rh addition measured after 1 hr by gel-based ABPP method
Rhomboid protease GluP = target: T1, Rhomboid protease GluP (Bacillus subtilis (strain 168), UniProt P54493); experiment: Competitive inhibition of Bacillus subtilis rhomboid YqgP preincubated for 30 mins followed by FP-Rh addition measured after 1 hr by gel-based ABPP method
T1 sequence (P54493 whole entry): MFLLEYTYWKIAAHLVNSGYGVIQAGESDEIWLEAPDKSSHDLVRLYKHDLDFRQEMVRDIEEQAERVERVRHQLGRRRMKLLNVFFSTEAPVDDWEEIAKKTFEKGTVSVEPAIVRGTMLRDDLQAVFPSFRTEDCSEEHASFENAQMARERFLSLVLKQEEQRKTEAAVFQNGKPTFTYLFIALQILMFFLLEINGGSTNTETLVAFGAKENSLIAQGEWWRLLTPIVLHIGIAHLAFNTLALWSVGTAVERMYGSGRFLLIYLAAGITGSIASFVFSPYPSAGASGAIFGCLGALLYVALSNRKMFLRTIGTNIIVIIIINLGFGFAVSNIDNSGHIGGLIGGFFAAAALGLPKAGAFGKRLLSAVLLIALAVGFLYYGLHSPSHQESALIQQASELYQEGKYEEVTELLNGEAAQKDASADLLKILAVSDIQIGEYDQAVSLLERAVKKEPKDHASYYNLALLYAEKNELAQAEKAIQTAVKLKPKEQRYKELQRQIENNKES

[5] = Inhibition of bovine chymotrypsin using Suc-AAF-AMC as substrate preincubated for 30 mins followed by substrate addition measured for 20 mins by fluorescence assay; design: species or system Bos taurus
[6] = target: T2, Rhomboid protease GluP (Bacillus subtilis (strain 168)) (UniProt P54493); experiment: Competitive inhibition of Bacillus subtilis rhomboid YqgP assessed as residual enzyme activity at 100 uM preincubated for 30 mins followed by FP-Rh addition measured after 1 hr by gel-based ABPP method
T2 sequence (whole entry): T1 sequence (P54493 whole entry)

Escherichia coli [7] = experiment: Competitive inhibition of Escherichia coli rhomboid GlpG at 100 uM preincubated for 30 mins followed by FP-Rh addition measured after 1 hr by gel-based ABPP method
[8] = target: T2, Rhomboid protease GluP (Bacillus subtilis (strain 168)); experiment: Competitive inhibition of Bacillus subtilis rhomboid YqgP at 100 uM preincubated for 30 mins followed by FP-Rh addition measured after 1 hr by gel-based ABPP method
Escherichia coli [9] = experiment: Irreversible inhibition of Escherichia coli rhomboid GlpG assessed as residual activity at 10 uM preincubated for 30 mins followed by excess drug removal for 0 to 240 mins before FP-Rh addition measured after 1 hr by ABPP method
Escherichia coli [10] = experiment: (§1) Inhibition of rhomboid GlpG in Escherichia coli MC4100 outer membrane permeabilized mutant containing delta-lptD4213 preincubated for 15 mins followed by pPR61 (pD881-SR_MBP-LacYTM2-Trx) substrate addition measured after 4 hrs by fluorescence based Western blot
[11] = Selectivity index, ratio of IC50 for competitive inhibition of Escherichia coli rhomboid GlpG to IC50 for competitive inhibition of Bacillus subtilis rhomboid YqgP
[12] = Selectivity index, ratio of IC50 for competitive inhibition of Bacillus subtilis rhomboid YqgP to IC50 for competitive inhibition of Escherichia coli rhomboid GlpG
[13] = as §1
Escherichia coli [14] = experiment: Reversible inhibition of Escherichia coli rhomboid GlpG assessed as residual activity at 10 uM preincubated for 30 mins followed by excess drug removal for 30 mins before FP-Rh addition measured after 1 hr by ABPP method

Compound `O=c1oc(Cl)c(Cl)c2ccccc12` has an Activity (Escherichia coli [1]) of 50%.

Compound `O=c1oc(OCc2ccccc2)nc2cc3ccccc3cc12` has an IC50 [2] of 2.4 µM, an IC50 [3] of less than 0.1 µM and an Activity (Escherichia coli [4]) of less than 5%. For the same compound, the IC50 (Rhomboid protease GluP) was 7.3 µM, the IC50 [5] was less than 0.1 µM and the Activity [6] was less than 5%.

`Cc1ccc2nc(OCc3ccccc3)oc(=O)c2c1` gave an IC50 [3] of less than 0.1 µM, an Activity (Escherichia coli [4]) of less than 5% and an IC50 (Rhomboid protease GluP) of 4.6 µM. It also gave an IC50 [5] of less than 0.1 µM and an Activity [6] of less than 5%.

With `O=c1oc(OCCc2ccccc2)nc2cccc(Cl)c12` the inhibition (Escherichia coli [7]) was “inactive” and the inhibition [8] was “inactive”.

`C#CCOc1nc2cccc(Cl)c2c(=O)o1` gave an IC50 [2] of 1.7 µM, an IC50 [3] of 1.2 µM and an Activity (Escherichia coli [4]) of less than 5%. For the same compound, the inhibition (Escherichia coli [9]) was “Active”, the inhibition (Escherichia coli [7]) was “Active” and the inhibition (Escherichia coli [10]) was “inactive”. The IC50 (Rhomboid protease GluP) was 6.2 µM, the IC50 [5] was 0.41 µM and the Activity [6] was less than 5%. For the same compound, the inhibition [8] was “Active”.

With `C#CCCCc1nc2cccc(Cl)c2c(=O)o1` the inhibition (Escherichia coli [7]) was “Active” and the inhibition [8] was “Active”.

For `C#CCCCc1nc2cccc(C)c2c(=O)o1`, the inhibition (Escherichia coli [7]) was “Active” and the inhibition [8] was “Active”.

With `O=c1oc(OCc2ccccc2)nc2c(Cl)cccc12` the IC50 [2] was 63 µM, the IC50 [3] was less than 0.1 µM and the Activity (Escherichia coli [4]) was less than 5%. The Ratio IC50 [11] was 130, the IC50 (Rhomboid protease GluP) was 0.47 µM and the IC50 [5] was less than 0.1 µM. The Activity [6] was less than 5%.

With `Cc1cccc2nc(OCc3ccccc3)oc(=O)c12` the IC50 [2] was 1 µM, the IC50 [3] was less than 0.1 µM and the Activity (Escherichia coli [4]) was less than 5%. For the same compound, the Ratio IC50 [12] was 15, the inhibition (Escherichia coli [9]) was “Active” and the IC50 [13] was 8.5 µM. For the same compound, the IC50 (Rhomboid protease GluP) was 15 µM, the IC50 [5] was less than 0.1 µM and the Activity [6] was less than 5%.

For `C#CCCOc1oc(=O)c2cc(N)ccc2c1Cl`, the inhibition (Escherichia coli [7]) was “Active” and the inhibition [8] was “Active”.

With `O=c1oc(OCc2ccccc2)nc2ccccc12` the IC50 [2] was 2.5 µM, the inhibition (Escherichia coli [14]) was “inactive” and the IC50 [3] was less than 0.1 µM. The Activity (Escherichia coli [4]) was less than 5%, the inhibition (Escherichia coli [10]) was “Active” and the IC50 (Rhomboid protease GluP) was 3.7 µM. It also gave an IC50 [5] of less than 0.1 µM and an Activity [6] of less than 5%.

With `O=c1oc(OCc2ccccc2)nc2cccc(Cl)c12` the IC50 [2] was 1.2 µM, the IC50 [3] was less than 0.1 µM and the Activity (Escherichia coli [4]) was less than 5%. The inhibition (Escherichia coli [9]) was “Active”, the inhibition (Escherichia coli [10]) was “inactive” and the IC50 (Rhomboid protease GluP) was 1.6 µM. It also gave an IC50 [5] of less than 0.1 µM and an Activity [6] of less than 5%.

`C#CCOc1nc2cccc(C)c2c(=O)o1` showed an IC50 [3] of 1.1 µM, an Activity (Escherichia coli [4]) of less than 5% and an IC50 (Rhomboid protease GluP) of 2.8 µM. The IC50 [5] was less than 0.1 µM and the Activity [6] was less than 5%.

With `Cc1cccc2nc(OCCc3ccccc3)oc(=O)c12` the inhibition (Escherichia coli [7]) was “inactive” and the inhibition [8] was “inactive”.

With `CCOc1nc2cccc(Cl)c2c(=O)o1` the IC50 [2] was 2.2 µM, the IC50 [3] was less than 0.1 µM and the Activity (Escherichia coli [4]) was less than 5%. The inhibition (Escherichia coli [9]) was “Active”, the inhibition (Escherichia coli [10]) was “inactive” and the IC50 (Rhomboid protease GluP) was 7.1 µM. It also gave an IC50 [5] of less than 0.1 µM and an Activity [6] of less than 5%.
